Patent US9464064B2, “HCV helicase inhibitors and methods of use thereof” (University of Kansas, priority 2011, dated 2016)
Starred links: 1 amine or outer side, 2 acyl side, 3 side chain; linkers in the order of their positions; H or OH if unused. Positions of bridges follow the written chain, without caps; N, C: chain ends. Non-standard residues stand in square brackets, D forms with d. Residues, ends and D or L forms follow the SMILES beside them. Chains are numbered I, II in the order given. Actinocin(1to9) = Cc1c2oc3c(C)ccc(C(=O)[*:2])c3nc-2c(C(=O)[*:1])c(N)c1=O; NMeV = CN[C@H](C(=O)O)C(C)C; Sar = CNCC(=O)O

Biological target: T1, HCV NS3 helicase NS3h_1b(con1) (Hepatitis C virus genotype 1b, UniProt Q9WMX2)
T1 construct: truncated C-terminally His-tagged NS3 proteins lacking the N-terminal protease, called NS3h; His-tag (C); made in house
Assay: MBHA screen of NCI mechanistic set library at 20 μM (percent inhibition, compound interference)
Type: biochemical
Conditions: compounds at 20 μM; for Inh. (%) (Inhibition): calculated from Equation 1
Outline: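 Molecular beacon-based DNA unwinding assay; compounds screened at 20 μM in triplicate, with DMSO-only negative and 500 nM dT20 positive controls. Fluorescence (ex 643/em 670 nm) was read before and 30 min after adding ATP to 1 mM. Percent inhibition came from the change relative to DMSO controls; interference from pre-ATP fluorescence versus DMSO controls.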

[1] = MBHA with DNA substrate, assay interference calculated with Equation 2
[2] = assay interference calculated with Equation 2 (fluorescence vs DMSO-only controls before ATP)

T1 sequence (Q9WMX2 1192-1657): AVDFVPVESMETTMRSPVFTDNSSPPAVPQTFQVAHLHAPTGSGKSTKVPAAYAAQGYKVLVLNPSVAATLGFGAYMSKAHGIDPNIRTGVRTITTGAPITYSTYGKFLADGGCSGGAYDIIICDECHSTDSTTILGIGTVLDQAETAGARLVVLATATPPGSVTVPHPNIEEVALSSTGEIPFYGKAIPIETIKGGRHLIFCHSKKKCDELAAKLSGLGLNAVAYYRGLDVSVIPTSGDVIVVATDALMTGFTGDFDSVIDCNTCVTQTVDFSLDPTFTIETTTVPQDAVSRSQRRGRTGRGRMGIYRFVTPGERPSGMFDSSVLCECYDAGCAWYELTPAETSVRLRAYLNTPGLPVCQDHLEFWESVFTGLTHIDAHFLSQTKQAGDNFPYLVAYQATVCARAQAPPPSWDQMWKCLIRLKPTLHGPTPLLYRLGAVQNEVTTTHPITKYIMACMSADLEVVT

SMILES | Int.* (Ratio) (Interference) [1] | Inh. (%) (Inhibition) (MBHA with DNA substrate) | Inh. (%) (Inhibition) (MBHA with a DNA substrate) | Int.* (Ratio) (Interference) [2]
CCC1CN2CCc3cc(OC)c(OC)cc3C2CC1CC1c2cc(OC)c(OC)cc2CCN1C(=O)C(Cc1c[nH]c2ccccc12)NC(=O)OC(C)(C)C (stereo not shown) [Compound 109350] | 0.92 | −9.3 |  | 
COc1ccc2cc(CN3CCC(C4CCN(Cc5ccc6cc(OC)ccc6c5)CC4)CC3)ccc2c1.Cl [Compound 683792] | 0.93 | −8.0 |  | 
Cc1c2ccnc(C(N)=O)c2c(C)c2c1[nH]c1ccccc12.Cl [Compound 335142] | 0.95 | −1.5 |  | 
CO[C@H]1[C@@H](O)[C@@H](C)O[C@H](O[C@H]2[C@H](Oc3cccc4c(O)c5c(=O)oc6ccc(C)c7c(=O)oc(c34)c5c67)O[C@H](C)[C@H](O)[C@@H]2O)[C@@H]1O [Compound 5159] | 1.03 | 38.6 |  | 
COc1ccc(Cc2nc3ccccc3s2)cc1OC [Compound 632233] | 1.04 | −2.7 |  | 
O=c1ccc2ccc(CBr)cc2o1 [Compound 99027] |  |  | 10.1 | 0.93
COc1cc(C(O)CCBr)c(OC)cc1C (stereo not shown) [Compound 611750] | 0.94 | −8.1 |  | 
Nc1ncnc2c1ncn2[C@@H]1O[C@H](CO)C[C@H]1O [Compound 63984] | 1.11 | −0.8 |  | 
COC1C(C)OC(OC2CC(C)(O)Cc3cc4c(c(O)c32)C(=O)c2c(O)cc3c(c2C4=O)OC2OC3(C)C(O)C(N(C)C)C2O)C(OC)C1(C)OC (stereo not shown) [Compound 265450] | 0.54 | 38.9 |  | 
COc1cc2c3c(c1OC)-c1cc4c(cc1CC3(C#N)N(C(=O)c1ccccc1)CC2)OCO4 (stereo not shown) [Compound 627666] |  |  | −3.6 | 0.87
O=[n+]1c2c(n([O-])c3ccccc31)-c1cccc3cccc-2c13 [Compound 60309] | 0.93 | 13.6 |  | 
O=C([CH-]C(=O)C(F)(F)F)c1ccccc1.O=C([CH-]C(=O)C(F)(F)F)c1ccccc1.O=C([CH-]C(=O)C(F)(F)F)c1ccccc1.O=C([CH-]C(=O)C(F)(F)F)c1ccccc1.[Eu+3].c1ccncc1 [Compound 253995] | 0.78 | 2.4 |  | 
C1CN1c1nc(N2CC2)nc(N2CC2)n1 [Compound 9706] | 0.98 | −10.9 |  | 
O=C1OC(c2ccco2)=N/C1=C\c1ccc(Cl)c(Cl)c1 [Compound 202000] |  |  | −5.7 | 0.99
[Cl-].c1csc(C[N+]23CN4CN(CN(C4)C2)C3)c1 [Compound 49660] | 0.93 | 21.2 |  | 
Cl.O=C1/C(=C\c2ccc(Cl)c(Cl)c2)CN(C(=O)CCN2CCOCC2)C/C1=C\c1ccc(Cl)c(Cl)c1 [Compound 638646] |  |  | −3.1 | 0.76

SMILES | Int.* (Ratio) (Interference) [1] | Inh. (%) (Inhibition) (MBHA with DNA substrate) | Inh. (%) (Inhibition) (MBHA with a DNA substrate) | Int.* (Ratio) (Interference) [2]
NC(=O)OCc1c(O)c2c(c(O)c1COC(N)=O)C(=O)C=CC2=O [Compound 224124] | 0.93 | 37.7 |  | 
CCN(CC)CCCC(C)Nc1c2ccc(Cl)cc2nc2ccc(OC)cc12.Cl.Cl (stereo not shown) [Compound 14229] | 1.08 | 55.1 |  | 
COc1ccc(NC(=O)CC(=O)N2N=C(C)C(N=Nc3ccc(S(=O)(=O)c4ccc(N=NC5C(=O)N(C(=O)CC(=O)Nc6ccc(OC)cc6)N=C5C)cc4)cc3)C2=O)cc1 (stereo not shown) [Compound 677392] | 1.00 | −18.1 |  | 
CC[C@H](C)[C@@H]1NC(=O)[C@@H](NC(=O)c2c3nc4c(C(=O)N[C@@H]5C(=O)N[C@@H](C(C)C)C(=O)N6CCC[C@H]6C(=O)N(C)CC(=O)N(C)[C@@H](C(C)C)C(=O)O[C@@H]5C)ccc(C)c4oc-3c(C)c(=O)c2N)[C@@H](C)OC(=O)[C@H](C(C)C)N(C)C(=O)CN(C)C(=O)[C@@H]2CCCN2C1=O [Compound 18268] (I: TIP[Sar][NMeV] / II: TVP[Sar][NMeV]; ester I:1-I:C, II:1-II:C; linker I:N-II:N via Actinocin(1to9)) | 0.61 | 27.6 |  | 
CC1(C)CCCC2(C)C3=C(CCC12)C(=O)OC3 (stereo not shown) [Compound 375294] | 0.87 | 13.9 |  | 
O=C1c2ccccc2-c2c1c1ccccc1c(=O)n2Cc1ccccc1 [Compound 337612] | 0.97 | −16.5 |  | 
[O-][Cl+3]([O-])([O-])[O-].c1ccc(-c2csc3c4ccccc4c4ccccc4[n+]23)cc1 [Compound 98904] | 0.89 | 41.2 |  | 
CC(C)[Si]1(C(C)C)OCC2OC(n3cnc4c(N)ncnc43)C(N)C2O[Si](C(C)C)(C(C)C)O1 (stereo not shown) [Compound 687330] | 0.91 | −12.1 |  | 
O=C1c2ccccc2C(=O)c2sc(Nc3ccc(Cl)cc3)nc21 [Compound 631529] |  |  | −28.9 | 1.06
Cl.Cl.Cl.Cl.NCCCNCCCCNCCCN [Compound 69852] | 1.06 | −8.6 |  | 
CCOc1ccc(C(C)c2cc3c(cc2OC)OCO3)cc1 (stereo not shown) [Compound 353648] | 0.94 | 1.7 |  | 
CN(C)CC1CCC/C(=C\c2ccc(OC(=O)/C=C/c3ccccc3)cc2)C1=O.Cl (stereo not shown) [Compound 697443] |  |  | 11.6 | 1.01
COc1ccc2nc3cc([N+](=O)[O-])ccc3c(NNc3ccccc3)c2c1 [Compound 689872] | 1.01 | −2.4 |  | 
Cc1cc(NCCCCCCCNc2cc(C)nc3cc(N)ccc23)c2ccc(N)cc2n1 [Compound 273829] | 0.26 | 105.0 |  | 
Cc1ccc(C)c2c(N=Nc3ccccc3[N+](=O)[O-])c(O)[nH]c12 [Compound 118732] | 0.89 | 14.2 |  | 
COC(=O)NC1C(C)OC(OC2C/C=C(\C)C3C=C[C@H]4C(OC5CC(OC6CCC(OC7CC(O)C(OC8CCC(O)C(C)O8)C(C)O7)C(C)O6)C(OC(C)=O)C(C)O5)C(C)CC(C)[C@@H]4[C@@]3(C)C([O-])=C3C(=O)OC4(CC(C=O)=CC(O)[C@@H]4/C=C\2C)C3=O)CC1(C)[N+](=O)[O-].[Na+] (stereo partly shown) [Compound 333856] |  |  | −5.2 | 0.95

Continued, values first:

Int.* (Ratio) (Interference) [1] | Inh. (%) (Inhibition) (MBHA with DNA substrate) | Inh. (%) (Inhibition) (MBHA with a DNA substrate) | Int.* (Ratio) (Interference) [2] | SMILES
1.00 | −12.5 |  |  | CC(C)C1(Cl)CCC2C3(C)CCCC(C)(C(=O)O)C3CC(Cl)C2(Cl)C1Cl (stereo not shown) [Compound 2979]
0.91 | −12.7 |  |  | Cc1c(C(=O)C/C(=N/NC(=O)CC#N)C(N)=O)[n+](=O)c2ccccc2n1[O-] [Compound 635542]
1.10 | 0.9 |  |  | CCOC(=O)C(C)NC(=O)N(C)C12CC3CC(CC(C3)C1)C2 (stereo not shown) [Compound 208913]
0.80 | −17.2 |  |  | CC(=O)SC(SC(C)=O)SC(C)=O [Compound 637833]
1.11 | 5.9 |  |  | O=C(CC1(O)C(=O)Nc2c(Cl)cc(Cl)cc21)c1ccc([N+](=O)[O-])cc1 (stereo not shown) [Compound 635326]
0.96 | −0.8 |  |  | Cc1c(Cl)cccc1NC(=O)c1cccc([N+](=O)[O-])c1O [Compound 328477]
 |  | −3.5 | 0.97 | COC(=O)c1ccccc1OCc1cc(=O)oc2ccc(C)cc12 [Compound 623637]
1.05 | 2.5 |  |  | CC1=C(O)c2ccccc2C(=O)C1=O [Compound 11897]
 |  | −22.3 | 1.01 | CC(C)CCCCCCCCCCCCC(=O)NCC(=O)N[C@@H]1[C@@H](O)[C@H](O)[C@@H](Nc2ncnc3nc[nH]c23)O[C@H]1[C@@H](O)CO [Compound 65104]
0.97 | −10.5 |  |  | Cc1ccc(C)c(NC(=O)C(=O)C(C(=O)c2ccc3ccccc3c2)C2OC(=O)c3ccccc32)c1 (stereo not shown) [Compound 640985]
 |  | −19.1 | 1.05 | COC1=C(N)C(=O)c2nc(-c3nc(C(=O)O)c(C)c(-c4ccc(OC)c(OC)c4O)c3N)ccc2C1=O [Compound 45383]
0.88 | −14.8 |  |  | COC(=O)c1ccccc1NC(=O)C(=O)CC(=O)c1ccccc1NC1=CC(=O)C(=O)c2ccccc21 [Compound 641240]
1.07 | −8.0 |  |  | CCN(CC)C(=S)S [Compound 4857]
1.10 | −19.0 |  |  | CN(N=O)C(=O)N[C@@H]1[C@@H](O)[C@H](O)[C@@H](CO)O[C@@H]1O [Compound 85998]
0.90 | 13.5 |  |  | CC/C(=C(\c1ccccc1)c1ccc(OCCN(C)C)cc1)c1ccccc1.O=C(O)CC(O)(CC(=O)O)C(=O)O [Compound 180973]
